Data reported in ChEMBL document CHEMBL5634158, “From garden to lab: C-3 chemical modifications of tomatidine unveil broad-spectrum ATP synthase inhibitors to combat bacterial resistance” (Eur J Med Chem, 2023).

Tests used:
Escherichia coli [1] = assay: Antibacterial activity against Escherichia coli ATCC 25922 assessed as fold decrease in MIC for 20 hrs under aerobic condition by CLSI based broth microdilution method; type: functional
Staphylococcus aureus [2] = assay: Antibacterial activity against Staphylococcus aureus ATCC 29213 assessed as fold decrease in MIC incubated for 20 hrs under aerobic condition by CLSI based broth microdilution method; type: functional
Escherichia coli [3] = assay: Antibacterial activity against Escherichia coli ATCC 25922 assessed as reduction in microbial growth incubated for 20 hrs under aerobic condition by CLSI based broth microdilution method; type: functional
Staphylococcus aureus [4] = assay: Antibacterial activity against Staphylococcus aureus ATCC 29213 assessed as reduction in microbial growth incubated for 20 hrs under aerobic condition by CLSI based broth microdilution method; type: functional
Escherichia coli [5] = assay: Antibacterial activity against Escherichia coli MC4100 harbouring acrAB mutant assessed as reduction in bacterial growth by CLSI based broth microdilution method; type: functional
Escherichia coli [6] = assay: Antibacterial activity against Escherichia coli MC4100 assessed as reduction in bacterial growth by CLSI based broth microdilution method; type: functional
Staphylococcus aureus [7] = assay: Antibacterial activity against Staphylococcus aureus ATCC 29213 hemB SCV assessed as reduction in microbial growth incubated for 20 hrs under aerobic condition by CLSI based broth microdilution method; type: functional
Escherichia coli [8] = assay: Antibacterial activity against Escherichia coli MC4100 harbouring lptD mutant assessed as reduction in bacterial growth by CLSI based broth microdilution method; type: functional
Escherichia coli [9] = assay: Selectivity ratio of MIC for Escherichia coli MC4100 to MIC for Escherichia coli MC4100 harbouring acrAB mutant; type: toxicity, organism-based; details: in vivo
[10] = Inhibition of Escherichia coli ATCC 25922 ATP synthase activity preincubated for 30 mins followed by NADH/ADP addition and measured after 60 mins by luciferin/luciferase luminescence assay

| Compound | fold change (FC) (Escherichia coli [1]) | fold change (FC) (Staphylococcus aureus [2]) | MIC (Escherichia coli [3]) [µg/mL] | MIC (Staphylococcus aureus [4]) [µg/mL] | MIC (Escherichia coli [5]) [µg/mL] | MIC (Escherichia coli [6]) [µg/mL] | MIC (Staphylococcus aureus [7]) [µg/mL] | MIC (Escherichia coli [8]) [µg/mL] | Selectivity ratio (Escherichia coli [9]) | IC50 [10] [nM] |
| --- | --- | --- | --- | --- | --- | --- | --- | --- | --- | --- |
| C[C@H]1CC[C@]2(NC1)O[C@H]1C[C@H]3[C@@H]4CC[C@H]5CC(NC[C@@H]6Cc7ccccc7CN6)CC[C@]5(C)[C@H]4CC[C@]3(C)[C@H]1[C@@H]2C (mixture of isomers) | 2 | 2 | > 128 | 16 |  |  |  |  |  |  |
| C[C@H]1CC[C@]2(NC1)O[C@H]1C[C@H]3[C@@H]4CC[C@H]5CC(NC[C@@H](N)Cc6ccc(O)cc6)CC[C@]5(C)[C@H]4CC[C@]3(C)[C@H]1[C@@H]2C (mixture of isomers) |  |  | 64 | 8 | 16 | > 128 | 0.25 | 8 | > 8 | 1600 |
